In one experiment the test system is carageenan-induced edema. The experiment is described as follows: Carrageenan-induced rat paw edema test (anti-inflammatory activity). The settings on record: Rattus norvegicus, po, 3 h, rat paw edema, 50 mg/kg, reading 3 hours after carrageenan; [(Control−Test)/Control]×100%; read-out: % Protection P. It counts as in vivo, Sprague-Dawley rats. The method, then: Sprague-Dawley rats, male and female, 150-250 g will be used in an edema test. Rats will be deprived of food but not water for 18 hours prior to the experiment. The test compounds will be administered with a blunt-tipped needle orally, 50 mg/kg, as a suspension in 0.1% sodium CMC (carboxymethylcellulose) vehicle. Alternatively, the test compounds will be injected intravenously, subcutaneously, or intraperitoneally. One hour later, 0.1 ml of a 1% carrageenan solution in saline will be injected in the sub-plantar region of the right hind paw of each rat. […] The reading will be repeated 3 hours later. The displacement readings give a measure of carageenan-induced edema. Any reduction in carageenan-induced edema with a test compound, as compared to saline control, is a measure of the anti-inflammatory activity of the test compound. The percentage protection at 50-mg/kg doses was calculated according to the following formula: % Protection=[(Control−Test)/Control]×100%.
Following treatment, the media from the VSMC and HUVEC incubations were removed, and the amount of lactate dehydrogenase (LDH) released into the medium was determined with a commercial kit and expressed as a % increase over vehicle-treated cells. HPT toxicity was determined by the ethidium homodimer (EthHD) uptake assay. […] The lead compounds were also tested in two pairs of cell lines from the skin or prostate, one tumorigenic and one non-tumorigenic, to test for differing toxicity or heightened sensitivity in the tumorigenic lines. The cells were treated for 48 h with vehicle (0.1% DMSO) or 10 μM of each drug candidate, and the viability of the cells was determined by the MTT assay, expressed as a % decrease in viability compared to vehicle-treated cells. The in vivo inflammation model measured the % inhibition of rat paw edema induced by carageenan injection.
For the compound `CCN(CC)C(/C=N/C(=S)NC(=O)c1ccccc1)c1ccccc1` (stereo not shown) [Example 38, 1-Benzoyl-3-[1-diethylamino-1-phenyl-eth-(E)-ylidene]-thiourea], the inhibition in vivo at 50 mg/kg was found to be 10.9%. As to `O=C(c1ccccc1)c1cc(-c2ccccc2)c(N2CCOCC2)s1` [Example 42, (5-Morpholin-4-yl-4-phenyl-thiophen-2-yl)-phenyl-methanone], the inhibition in vivo at 50 mg/kg was determined as 53.5%. Same read-out and setting: the value for `O=C(c1ccc(Cl)cc1)c1cc(-c2ccccc2)c(N2CCOCC2)s1` [Example 45, (4-Chloro-phenyl)-(5-morpholin-4-yl-4-phenyl-thiophene-2-yl)-methanone] was 53.5%; that for `O=C(c1cc(-c2ccccc2)c(N2CCOCC2)s1)c1ccc(Cl)cc1Cl` [Example 46, (2,4-Dichloro-phenyl)-(5-morpholin-4-yl-4-phenyl-thiophene-2-yl)-methanone] was 68.3%; that for `CS(=O)(=O)c1ccc(C(=O)c2cc(-c3ccccc3)c(N3CCOCC3)s2)cc1` [Example 48, (4-Methylsulfonyl-phenyl)-(5-morpholin-4-yl-4-phenyl-thiophene-2-yl)-methanone] was 30%. On the same count and under the same terms, the value for `O=C(c1cccnc1)c1cc(-c2ccccc2)c(N2CCOCC2)s1` [Example 50, (5-Morpholin-4-yl-4-phenyl-thiophene-2-yl)-pyridine-3-yl-methanone] was 6.9%. On the same count and under the same terms, then `CS(=O)(=O)c1ccc(-c2cc(C(=O)c3ccccc3)sc2N2CCOCC2)cc1` [Example 54, [4-(4-Methanesulfonyl-phenyl)-5-morpholin-4-yl-thiophene-2-yl]-phenyl-methanone], with 17.8%.

As to `Cc1ccc(C(=O)c2cc(-c3ccc(S(C)(=O)=O)cc3)c(N3CCOCC3)s2)cc1` [Example 55, [4-(4-Methanesulfonyl-phenyl)-5-morpholin-4-yl-thiophene-2-yl]-p-tolyl-methanone], the inhibition in vivo at 50 mg/kg was -13.5%. Still for that read-out and setting: the value for `CS(=O)(=O)c1ccc(-c2cc(C(=O)c3ccc(Cl)cc3)sc2N2CCOCC2)cc1` [Example 57, (4-Chloro-phenyl)-[4-(4-methanesulfonyl-phenyl)-5-morpholin-4-yl-thiophen-2-yl]-methanone] was 26.9%; that for `CS(=O)(=O)c1ccc(-c2cc(C(=O)c3ccc(Cl)cc3Cl)sc2N2CCOCC2)cc1` [Example 58, (2,4-Dichloro-phenyl)-[4-(4-methanesulfonyl-phenyl)-5-morpholin-4-yl-thiophen-2-yl]-methanone] was 50%. For the compound `CSc1ccc(C(=O)c2cc(-c3ccc(S(C)(=O)=O)cc3)c(N3CCOCC3)s2)cc1` [Example 59, [4-(4-Methanesulfonyl-phenyl)-5-morpholin-4-yl-thiophene-2-yl]-(4-methylsulfanyl-phenyl)-methanone], the inhibition in vivo at 50 mg/kg amounted to 45.8%. Still for that read-out and setting: the value for `CS(=O)(=O)c1ccc(C(=O)c2cc(-c3ccc(S(C)(=O)=O)cc3)c(N3CCOCC3)s2)cc1` [Example 60, (4-Methanesulfonyl-phenyl)-[4-(4-methansulfonyl-phenyl)5-morpholin-4-yl-thiophene-2-yl]-methanone] was 59.9%; that for `CC(=O)Nc1ccc(C(=O)c2cc(-c3ccc(S(C)(=O)=O)cc3)c(N3CCOCC3)s2)cc1` [Example 61, N-{4-[4-(4-Methansulfonyl-phenyl)-5-morpholin-4-yl-thiophene-2carbonyl]-phenyl}-acetamide] was 25%; that for `CS(=O)(=O)c1ccc(-c2cc(C(=O)c3cccnc3)sc2N2CCOCC2)cc1` [Example 62, [4-(4-Methanesulfonyl-phenyl)-5-morpholin-4-yl-thiophene-2-yl]-pyridin-3-yl-methanone] was 0%. Take `CC(=O)Nc1ccc(-c2cc(C(=O)c3ccc(C)cc3)sc2N2CCOCC2)cc1` [Example 67, N-{4-[5-(4-Methyl-benzoyl)-2-morpholin-4-yl-thiophene-3-yl]-phenyl}-acetamide]: the inhibition in vivo at 50 mg/kg was determined as 7.67%. On the same count and under the same terms, then `COc1ccc(C(=O)c2cc(-c3ccc(NC(C)=O)cc3)c(N3CCOCC3)s2)cc1` [Example 68, N-{4-[5-(4-Methoxy-benzoyl)-2-morpholin-4-yl-thiophene-3-yl]-phenyl}-acetamide], with 40%; and `CC(=O)Nc1ccc(-c2cc(C(=O)c3ccc(Cl)cc3)sc2N2CCOCC2)cc1` [Example 69, N-{4-[5-(4-Chloro-benzoyl)-2-morpholin-4-yl-thiophene-3-yl]-phenyl}-acetamide], with -21.8%. Same read-out and setting: the value for `CC(=O)Nc1ccc(-c2cc(C(=O)c3ccc(S(C)(=O)=O)cc3)sc2N2CCOCC2)cc1` [Example 72, N-{4-[5-(4-Methansulfonyl-benzoyl)-2-morpholin-4-yl-thiophene-3-yl]-phenyl}-acetamide] was 50%; that for `CC(=O)Nc1ccc(-c2cc(C(=O)c3cccnc3)sc2N2CCOCC2)cc1` [Example 74, N-{4-[2-Morpholin-4-yl-5-(pyridine-3-carbonyl)-thiophene-3-yl]-phenyl}-acetamide] was 34%. On the same count and under the same terms, the value for `O=C(c1ccccc1)c1cc(-c2ccc(Cl)cc2)c(N2CCOCC2)s1` [Example 78, [4-(4-Chloro-phenyl)-5-morpholin-4-yl-thiophen-2-yl]-phenyl-methanone] was -48.3%; that for `Cc1ccc(C(=O)c2cc(-c3ccc(Cl)cc3)c(N3CCOCC3)s2)cc1` [Example 79, [4-(4-Chloro-phenyl)-5-morpholin-4-yl-thiophen-2-yl]-p-tolyl-methanone] was -31%; that for `O=C(c1ccc(Cl)cc1)c1cc(-c2ccc(Cl)cc2)c(N2CCOCC2)s1` [Example 81, (4-Chloro-phenyl)-[4-(4-chloro-phenyl)-5-morpholin-4-yl-thiophen-2-yl]-methanone] was 20%. On to `O=C(c1ccncc1)c1cc(-c2ccc(Cl)cc2)c(N2CCOCC2)s1` [Example 87, [4-(4-Chloro-phenyl)-5-morpholin-4-yl-thiophen-2-yl]-pyridin-4-yl-methanone], for which the inhibition in vivo at 50 mg/kg worked out at 35%. On to `COc1c(C)cc(-c2cc(-c3cccnc3)c(N3CCOCC3)s2)nc1C` [Example 88, 4-[5-(5-Methoxy-4,6-dimethyl-pyridin-2-yl)-3-pyridin-3-yl-thiophen-2-yl]-morpholine], for which the inhibition in vivo at 50 mg/kg is -18.1%.

Turning to `COc1ccc(C(=O)c2cc(-c3cccnc3)c(N3CCOCC3)s2)cc1` [Example 92, (4-Methoxy-phenyl)-(5-morpholin-4-yl-4-pyridin-3-yl-thiophen-2-yl)methanone], the inhibition in vivo at 50 mg/kg was found to be 69%. With `O=C(c1ccc(Cl)cc1)c1cc(-c2cccnc2)c(N2CCOCC2)s1` [Example 93, (4-Chloro-phenyl)-(5-morpholin-4-yl-4-pyridin-3-yl-thiophen-2-yl)-methanone], the inhibition in vivo at 50 mg/kg was found to be 0%. On the same count and under the same terms, the value for `O=C(c1cc(-c2cccnc2)c(N2CCOCC2)s1)c1ccc(Cl)cc1Cl` [Example 94, (2,4-Dichloro-phenyl)-(5-morpholin-4-yl-4-pyridin-3-yl-thiophen-2-yl)-methanone] was -51.4%; that for `CC(=O)Nc1ccc(C(=O)c2cc(-c3cccnc3)c(N3CCOCC3)s2)cc1` [Example 97, N-[4-(5-Morpholin-4-yl-4-pyridin-3-yl-thiophen-2-carbonyl)-phenyl]-acetamide] was 46.8%.

The same experiment, now with this note: rat paw edema, 50 mg/kg, reading 3 hours after carrageenan; [(Control−Test)/Control]×100%.
For “4-[3-Phenyl-5-(4,5,6-trimethoxy-pyridine-2-yl)-thiophen-2-yl]-morpholine [Example 39]”, the “% Protection P” value is given as 19.65%. Turning to “4-{3-(4-Chloro-phenyl)-5-[5-methyl-4-(2,2,2-trifluoro-ethoxy)-pyridin-2-yl]-thiophen-2-yl}-morpholine [Example 77]”, the “% Protection P” value is reported as 23%. Same read-out and setting: then “4-{5-[5-Methyl5-(2,2,2-trifluoro-ethoxy)-pyridin-2-yl]-3-pyridin-4-yl-thiphen-2-yl}-morpholine [Example 101]”, with 47%. Same read-out and setting: the value for “4-{5-[5-Methyl-5-(2,2,2-trifluoro-ethoxy)-pyridin-2-yl]-3-pyridin-3-yl-thiphen-2-yl}-morpholine [Example 89]” was −18.05%.

As for `CC(=O)Nc1ccc(-c2cc(C(=O)c3cc(OCC(F)(F)F)c(C)cn3)sc2N2CCOCC2)cc1` [Example 65, N(4-{5-[5-Methyl-4-(2,2,2-trifluoro-ethoxy)-pyridine-2-carbonyl]-2-morpholin-4-yl-thiophen-3-yl}-phenyl)-acetamide], the “% Protection P” value was 30%. On to `CSc1ccc(C(=O)c2cc(-c3ccc(Cl)cc3)c(N3CCOCC3)s2)cc1` [Example 83, [4-(4-Chloro-phenyl)-5-morpholin-4-yl-thiophen-2-yl]-(4-methansulfanyl-phenyl)-methanone], for which the “% Protection P” value is 27%.

The record behind these values is patent publication US8829014B2, “Thiazole and thiophene analogues, and their use in treating autoimmune diseases and cancers” (Board of Supervisors of Louisiana State University and …, priority 2006, dated 2014).
